Assay results reported in paper PMC12286339 (PLOS One, 2025).
Several values for one entry are separate records, joined by “and”; a condition that tells them apart may be missing. Equal values may be shown once.

Tests used:
[1] = 2nd mouse trial: co-administration with oxacillin, drug in blood, liver, heart and brain; details: 24 h after 30uL IV of Tun 6.7 mg/mL + oxacillin 6.7 mg/mL, individual mice
Experimental: In the second trial, which was a drug co-localization study, forty (20 male and 20 female) C57BL/6 mice were enrolled on Study Day 0 and were dosed according to the experimental design shown in Fig 2A and S3 Table. Body weights and clinical observations were recorded as before. […] Blood samples were taken (50 μL) 5 min, 15 min, 30 min, 1h, 2h, 4h, 6h, and 24h post-injection. At the end of the study (24 h post dose) the mice were euthanized by CO2 asphyxiation, and liver, brain and heart were collected. The organs were homogenized in ethanol, then filtered to remove solids, and the ethanolic filtrate dried by Speedvac evaporation. The dried residues were stored at −80 °C and shipped on dry ice. Drug concentrations in tissue were measured by LC–MS/MS as previously described.

[2] = Pharmacokinetics in blood of C57BL/6 mice, 1st trial (single IV bolus, LC-MS, two-compartment model); type: in vivo; details: individual mice, Tun 10 mg/mL 30uL IV
Experimental: Eighty, 40 male (M) and 40 female (F), C57BL/6 mice were enrolled in the study on Day 0. Body weights, clinical observations, and digital caliper measurements were recorded. Eight (4M/4F) animals per treatment received a single 30uL intravenous bolus dose of the experimental samples (or control DMSO carrier) via the lateral tail vein, as shown in Fig 2A and S1 Table. […] After the first dosing, blood draws for the PK study were at 8-time points (5 min, 15 min, 30 min, 1 h, 2 h, 4 h, 6 h, 24 h). The mice were subdivided into 2 groups of 4 (2M/2F) mice each, with each subgroup having ~50 ul of blood collected via retro-orbital bleed for 4-time points (subgroup 1: 5 min, 30 min, 2h, and 6 h; subgroup 2: 15 min, 1h, 4h, and 24 h). In life, a collection of 50 μL of blood was diluted with 450 μL of ethanol and evaporated to dryness on a Speedvac evaporator under sterile conditions. The dried residues were stored at −80 °C and were shipped on dry ice to NCAUR, Peoria, for analysis. At the end of the study (24 h), the animals were euthanized, and terminal blood samples from all mice (100 µL) were collected via cardiac puncture, diluted with 900 μL of ethanol, and evaporated to dryness on a Speedvac. The dried residues are stored at −80 °C until ready for analysis.
For the comparative PK of tunicamycins in blood, drug concentrations were measured by LC–MS/MS as previously described. Different compartmental models (0, 1, or 2 compartments) and weighting options were assessed for goodness of fit by visual inspection of the observed versus predicted plots, weighted residual versus observed and predicted plots, and comparison of Akaike Information Criterion (AICc) values. A two-compartment IV bolus model was determined to describe the data best (S1 Fig).
Pharmacokinetic parameters were calculated by two-compartmental using a linear regression analysis and residuals method to calculate using Microsoft Excel 2024 using standard equations (Atkinson; 2007; Miyamato et al., 2019). Details about the PK equations to calculate drug concentrations and PK parameters are listed in the S1 Appendix.

[3] = in vivo; cited from earlier work
[4] = tested on: sheep; design: method as in earlier work; details: cumulative from multiple smaller doses; cited from earlier work

| Compound | N-acyl variants in brain (2nd trial) [1] [µg/mL] | N-acyl variants in heart (2nd trial) [1] [µg/mL] | N-acyl variants in liver (2nd trial) [1] | N-acyl variants in blood (1st trial) ([2]; time 0:05:00 (5 min)) | N-acyl variants in blood (1st trial) ([2]; time 0:15:00 (15 min)) | N-acyl variants in blood (1st trial) ([2]; time 0:30:00 (30 min)) | N-acyl variants in blood (1st trial) ([2]; time 1:00:00 (1 h)) | N-acyl variants in blood (1st trial) ([2]; time 2:00:00 (2 h)) [µg/mL] | N-acyl variants in blood (1st trial) ([2]; time 4:00:00 (4 h)) [µg/mL] | N-acyl variants in blood (1st trial) ([2]; time 6:00:00 (6 h)) [µg/mL] | N-acyl variants in blood (1st trial) ([2]; time 24:00:00 (24 h)) [µg/mL] | estimated t1/2 [3] [min] | oral lethal dose [4] [mg/kg] |
| --- | --- | --- | --- | --- | --- | --- | --- | --- | --- | --- | --- | --- | --- |
| CCC(C)CCCCCCCC/C=C/C(=O)N[C@H]1[C@H](O[C@H]2O[C@H](CO)[C@@H](O)[C@H](O)[C@H]2NC(C)=O)O[C@H](C[C@@H](O)[C@H]2O[C@@H](n3ccc(=O)[nH]c3=O)[C@H](O)[C@@H]2O)[C@H](O)[C@@H]1O (some centres unmarked) [C15a] | 0 | 0 | 0 µg/mL and 0.03337 µg/mL and 0.02831 µg/mL | 0.654 µg/mL and 0.6 µg/mL and 0 µg/mL | 0 ug/mL (3×) and 0.45 ug/mL | 0 µg/mL | 0 µg/mL | 0 | 0 | 0 | 0 |  |  |
| CC(=O)N[C@H]1[C@@H](O[C@@H]2O[C@H](C[C@@H](O)[C@H]3O[C@@H](n4ccc(=O)[nH]c4=O)[C@H](O)[C@@H]3O)[C@H](O)[C@H](O)[C@H]2NC(=O)/C=C/CCCCCCCCCC(C)C)O[C@H](CO)[C@@H](O)[C@@H]1O [C15i] | 0 | 0 | 0 µg/mL and 0.05015 µg/mL and 0.3411 µg/mL and 0.2948 µg/mL | 4.16 µg/mL and 5.09 µg/mL and 2.96 µg/mL | 3.05 µg/mL and 3.14 µg/mL and 1.44 µg/mL and 3.28 µg/mL | 0 ug/mL (2×) and 0.88 ug/mL and 1.74 ug/mL | 0 ug/mL (2×) and 0.77 ug/mL and 1.66 ug/mL | 0 | 0 | 0 | 0 |  |  |
| CCCCCCCCCCCCCC/C=C/C(=O)N[C@H]1[C@H](O[C@H]2O[C@H](CO)[C@@H](O)[C@H](O)[C@H]2NC(C)=O)O[C@H](C[C@@H](O)[C@H]2O[C@@H](n3ccc(=O)[nH]c3=O)[C@H](O)[C@@H]2O)[C@H](O)[C@@H]1O [C17s] | 0 | 0 | 0 µg/mL and 0.1695 µg/mL and 0.1754 µg/mL | 0 µg/mL | 0 µg/mL | 0 µg/mL | 0 µg/mL | 0 | 0 | 0 | 0 |  |  |
| Cc1onc(-c2ccccc2)c1C(=O)N[C@@H]1C(=O)N2[C@@H]1SC(C)(C)[C@@H]2C(=O)O [oxacillin] |  |  |  |  |  |  |  |  |  |  |  | 7.8 |  |
| corynetoxins [Cnx] |  |  |  |  |  |  |  |  |  |  |  |  | 3.2 to 5.6 |
